What all share (assay): DTP human tumour cell line panel, 48 h
Assay [1] relates to OVCAR-8 ovarian.
Assay [2] has as its system CAKI-1 renal.
The test system of assay [3] is SN12C renal.
The subject of assay [4] is NCI-H460 lung.
Assay [5] relates to MDA-MB-435.
In assay [6] the test system is T-47D breast.
The subject of assay [7] is SK-MEL-5 melanoma.
In assay [8] the test system is SF-539 CNS.
Assay [9] relates to CCRF-CEM leukemia.
Assay [10] deals with HL-60(TB) leukemia.

“And” between values parts separate entries of the source, which are not always exact repeats. Identical values can stand only once.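 Values below derive from 48-hour exposures of cells grown in 96-well plates, with endpoints linearly interpolated between the two concentrations bracketing the appropriate inhibition level. GI50 is the concentration that inhibits growth by half. At the TGI there is no net growth.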

For orientation: GI50 means the concentration that inhibits growth by half. Broadly, the TGI is the concentration giving total growth inhibition. High values mean less potent growth arrest, low ones more potent growth arrest.

Turning to `COC12C=C/C(=C(/C(=O)OCCSc3ccnn3C)C(=O)CCCCCCCCC3(OC)C=C/C(=C(/C(=O)OCCSc4ccnn4C)C(=O)CCCCCCCC1)O3)O2`, the GI50 in assay [1] is 1 µM; in assay [2], 1.18 µM; in assay [3], 1.05 µM; in assay [4] it was 1.07 µM; in assay [5], 0.685 µM; in [6], 1.26 µM. Besides, the GI50 was 0.581 µM in [7], 1.16 µM in [8], 1.09 µM in [9] and 0.929 µM in [10]. Besides, the TGI in assay [1] is 6.79 µM; in assay [2] it was more than 32.5 µM; in assay [3], 5.64 µM; in assay [4] it was 3.76 µM; in assay [5], 1.57 µM; in assay [6] it was more than 32.5 µM. Moreover, the TGI in assay [7] was 1.09 µM; in assay [8] it was 5.24 µM; in assay [9], more than 32.5 µM; in assay [10], 2.63 µM.
With `c1cc(CN2CCCNCCNCCCNCC2)ccc1CN1CCCNCCNCCCNCC1`, the GI50 in assay [1], in assay [2], in assay [3], in assay [4], in assay [5] and in assay [6] was more than 100 µM in each case. The GI50 in [7], in assay [8], in [9] and in assay [10] was more than 100 µM each time. Moreover, the TGI in [1], in assay [2], in assay [3], in [4], in assay [5] and in assay [6] was more than 100 µM each time. Moreover, the TGI in assay [7], in [8], in assay [9] and in assay [10] was more than 100 µM each time.
With `COC1CC(C)C(OC)c2cc(O)cc(c2O)NC(=O)/C(C)=C/C=C\C(C)C(OC(N)=O)/C(C)=C\C(C)C1OC` (configuration not stated), the GI50 is 0.704 µM and 0.602 µM in assay [1]; 6.93 µM and 7.45 µM in assay [2]; 0.348 µM and 0.42 µM in [4]; 0.446 µM in assay [6]; 0.691 µM and 0.599 µM in assay [7]; 0.271 µM in [8]. Also, the GI50 in assay [9] is 0.0356 µM and 0.148 µM; in assay [10] it was 0.075 µM and 0.227 µM and 0.0937 µM. In addition, the TGI in [1] is 11.8 µM and 26.9 µM; in assay [2], 16.3 µM and 14.4 µM; in assay [3], 15.1 µM and 8.7 µM; in assay [4] it was 18.4 µM and 8.56 µM; in [5] it was 32.2 µM and 6.1 µM; in assay [6], 18.6 µM and 12.9 µM. Further, the TGI was 18.1 µM and 5.29 µM in assay [7]; 10.2 µM and 8.61 µM in assay [8]; 1.48 µM and 0.578 µM in assay [10].
With `COc1cccc(Sc2ccc([N+](=O)[O-])c3no[n+]([O-])c23)c1`, the GI50 in assay [1] was 6.22 µM; in assay [2], 10.5 µM; in assay [3], 16.9 µM; in [4] it was 18.7 µM; in [5] it was 13.4 µM; in [6], 3.36 µM. The GI50 in assay [7] was 15.1 µM; in assay [8] it was 14.7 µM; in [9] it was 2.6 µM; in assay [10], 5.12 µM. Further, the TGI turned out to be 24.8 µM in assay [1]; 24.1 µM in assay [2]; 46.8 µM in assay [3]; 40.8 µM in assay [4]; 43.1 µM in assay [5]; 14.4 µM in [6]. Also, the TGI in assay [7] was determined as 29.5 µM; in assay [8] it was 28.1 µM; in assay [9], 8.14 µM; in assay [10], 14.6 µM.
As for `CN(C)C[C@H]1CCn2c(c(C3=C(c4cn(C)c5ccccc45)C(=O)NC3=O)c3ccccc32)C1`, the GI50 in [1] was 5.6 µM; in assay [2], 3.82 µM; in [3], 4.39 µM; in [4] it was 4.86 µM; in assay [5], 3.95 µM; in assay [6], 5.43 µM. The GI50 was 4.09 µM in assay [7], 4.01 µM in [8], 4.46 µM in assay [9] and 5.65 µM in assay [10]. The TGI in assay [1] came out at 13.2 µM; in [2] it was 8.74 µM; in assay [3], 9.66 µM; in assay [4] it was 9.55 µM; in assay [5], 7.9 µM; in assay [6], 11.2 µM. Moreover, the TGI in assay [7] was 7.71 µM; in [8], 7.73 µM; in [9], 12.4 µM; in [10] it was 11.3 µM.
For `COc1ccc(-c2nsc3c2NC(=O)CC3c2ccc3c(c2)OCCO3)cc1` (configuration not stated), the GI50 was 1.02 µM in [1]; 0.429 µM in assay [2]; 0.776 µM in assay [3]; 0.396 µM in assay [4]; 0.173 µM in assay [5]; 0.454 µM in assay [6]. Further, the GI50 was 0.37 µM in assay [7], 0.8 µM in assay [8], 0.406 µM in assay [9] and 0.326 µM in assay [10]. For the same compound, the TGI was more than 100 µM in assay [1]; more than 100 µM in assay [2]; more than 100 µM in assay [3]; more than 46 µM in [4]; 0.438 µM in assay [5]; more than 100 µM in [6]. The TGI in [7] was 5.86 µM; in [8] it was 6.71 µM; in assay [9], more than 100 µM; in assay [10], 12.5 µM.
Regarding `O=C1NCN(c2ccccc2)C12CCN(CCCC(c1ccc(F)cc1)c1ccc(F)cc1)CC2`, the GI50 in [1] is 1.6 µM; in assay [2], 2.51 µM; in assay [3], 2.45 µM; in [4], 1.68 µM; in [5], 1.75 µM; in [6], 2.43 µM. The GI50 was 1.6 µM in assay [7], 1.71 µM in assay [8], 2.14 µM in [9] and 1.82 µM in assay [10]. In addition, the TGI in assay [1] turned out to be 3.05 µM; in assay [2] it was 7.44 µM; in [3], 8.36 µM; in assay [4], 3.08 µM; in [5] it was 3.77 µM; in assay [6] it was 6.49 µM. Also, the TGI came out at 2.97 µM in [7], 3.13 µM in [8], 6.09 µM in [9] and 4 µM in [10].
